# Test results taken from US9738637B2, “Histone demethylase inhibitors” (Quanticel Pharmaceuticals, Inc., priority 2013, dated 2017).
# How the values were obtained:
# Format in all cases: biochemical
# Jarid1B = Jarid1B (Homo sapiens (Human), UniProt Q9UGL1); assay: Jarid1B in vitro enzyme inhibition assay (TR-FRET); details: TR-FRET, H3K4me3-biotin peptide; read-out: IC50 Jarid1B
# Experimental: (§1) This assay determines the ability of a test compound to inhibit Jarid1A, Jarid1B, JMJD2C, and JMJD2A demethylase activity.
# The reaction mixture was incubated at room temperature for 30 minutes, and terminated by the addition of 6 μl of 5 mM EDTA in LANCE detection buffer containing 50 nM Phycolink Streptavidin-allophycocyanin and 2 nM Europium-anti-H3K4me1-2 antibody.
# (§2) The ability of the compounds disclosed herein to inhibit demethylase activity was quantified and the respective IC50 value was determined.
# JMJD2C = JMJD2C (Homo sapiens (Human), UniProt Q9H3R0); assay: JMJD2C in vitro enzyme inhibition assay (TR-FRET); details: TR-FRET, H3K9me3-biotin peptide; read-out: IC50 JNJD2C
# Experimental: as §1
# Reaction product was determined quantitatively by TR-FRET after the addition of detection reagent Phycolink Streptavidin-allophycocyanin (Prozyme) and Europium-anti-di-methylated histone H3 lysine 9 (H3K9me2) antibody (PerkinElmer) in the presence of 5 mM EDTA in LANCE detection buffer (PerkinElmer) at a final concentration of 50 nM and 1 nM, respectively.
# The assay reaction was initiated by the following: 2 μl of the mixture of 900 nM H3K9me3-biotin labeled peptide and 6 μM alpha-ketoglutaric acid with 2 μl of 11-point serial diluted inhibitor in 3% DMSO were added to each well of the plate, followed by the addition of 2 μl of 0.9 nM JMJD2C to initiate the reaction. The reaction mixture was incubated at room temperature for 30 minutes, and terminated by the addition of 6 μl of 5 mM EDTA in LANCE detection buffer containing 100 nM Phycolink Streptavidin-allophycocyanin and 2 nM Europium-anti-H3K9me2 antibody.
# as §2
# Jarid1A = Jarid1A (Homo sapiens (Human), UniProt P29375); assay: Jarid1A in vitro enzyme inhibition assay (TR-FRET); details: H3K4me3-biotin peptide
# Experimental: as §1
# The enzymatic assay of Jarid1A activity is based upon Time Resolved-Fluorescence Resonance Energy Transfer (TR-FRET) detection.
# The assay reaction was initiated by the following: 2 μl of the mixture of 900 nM H3K4me3-biotin labeled peptide and 6 μM alpha-ketoglutaric acid with 2 μl of 11-point serial diluted inhibitor in 3% DMSO was added to each well of plate, followed by the addition of 2 μl of 3 nM Jarid1A to initiate the reaction. The reaction mixture was incubated at room temperature for 30 minutes, and terminated by the addition of 6 μl of 5 mM EDTA in LANCE detection buffer containing 50 nM Phycolink Streptavidin-allophycocyanin and 2 nM Europium-anti-H3K4me1-2 antibody.
# as §2
# JMJD2C, sequence (Q9H3R0 2-372): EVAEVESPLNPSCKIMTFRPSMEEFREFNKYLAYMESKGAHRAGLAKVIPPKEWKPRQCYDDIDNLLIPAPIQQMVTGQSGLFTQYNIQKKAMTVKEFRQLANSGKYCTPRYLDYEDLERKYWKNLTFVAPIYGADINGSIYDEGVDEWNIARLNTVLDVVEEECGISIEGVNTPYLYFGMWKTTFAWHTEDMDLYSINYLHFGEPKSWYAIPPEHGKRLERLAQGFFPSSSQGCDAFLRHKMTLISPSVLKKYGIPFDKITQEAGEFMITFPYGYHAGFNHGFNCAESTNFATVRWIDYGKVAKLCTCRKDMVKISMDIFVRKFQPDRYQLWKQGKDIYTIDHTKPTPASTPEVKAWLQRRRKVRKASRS
# Jarid1B, sequence (Q9UGL1 2-751): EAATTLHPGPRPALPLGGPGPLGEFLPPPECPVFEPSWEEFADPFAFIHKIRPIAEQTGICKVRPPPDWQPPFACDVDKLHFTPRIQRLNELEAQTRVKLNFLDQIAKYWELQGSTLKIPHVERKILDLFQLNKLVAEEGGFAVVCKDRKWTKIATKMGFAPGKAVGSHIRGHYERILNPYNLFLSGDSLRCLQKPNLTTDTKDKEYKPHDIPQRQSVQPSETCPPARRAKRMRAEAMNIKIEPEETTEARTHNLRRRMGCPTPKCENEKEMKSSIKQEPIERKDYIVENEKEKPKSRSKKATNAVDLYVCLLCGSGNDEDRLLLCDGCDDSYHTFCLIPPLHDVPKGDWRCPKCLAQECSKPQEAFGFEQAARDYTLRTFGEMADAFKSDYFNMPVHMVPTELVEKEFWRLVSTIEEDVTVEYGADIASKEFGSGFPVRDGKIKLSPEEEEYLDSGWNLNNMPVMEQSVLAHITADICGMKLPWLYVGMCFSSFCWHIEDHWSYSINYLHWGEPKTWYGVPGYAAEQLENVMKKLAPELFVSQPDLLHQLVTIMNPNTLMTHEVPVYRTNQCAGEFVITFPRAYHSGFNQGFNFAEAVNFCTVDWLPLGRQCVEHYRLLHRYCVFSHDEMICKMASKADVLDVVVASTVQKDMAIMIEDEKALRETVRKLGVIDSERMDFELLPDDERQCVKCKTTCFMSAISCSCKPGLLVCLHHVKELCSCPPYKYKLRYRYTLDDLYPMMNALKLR
# Jarid1A, sequence (P29375 1-1090): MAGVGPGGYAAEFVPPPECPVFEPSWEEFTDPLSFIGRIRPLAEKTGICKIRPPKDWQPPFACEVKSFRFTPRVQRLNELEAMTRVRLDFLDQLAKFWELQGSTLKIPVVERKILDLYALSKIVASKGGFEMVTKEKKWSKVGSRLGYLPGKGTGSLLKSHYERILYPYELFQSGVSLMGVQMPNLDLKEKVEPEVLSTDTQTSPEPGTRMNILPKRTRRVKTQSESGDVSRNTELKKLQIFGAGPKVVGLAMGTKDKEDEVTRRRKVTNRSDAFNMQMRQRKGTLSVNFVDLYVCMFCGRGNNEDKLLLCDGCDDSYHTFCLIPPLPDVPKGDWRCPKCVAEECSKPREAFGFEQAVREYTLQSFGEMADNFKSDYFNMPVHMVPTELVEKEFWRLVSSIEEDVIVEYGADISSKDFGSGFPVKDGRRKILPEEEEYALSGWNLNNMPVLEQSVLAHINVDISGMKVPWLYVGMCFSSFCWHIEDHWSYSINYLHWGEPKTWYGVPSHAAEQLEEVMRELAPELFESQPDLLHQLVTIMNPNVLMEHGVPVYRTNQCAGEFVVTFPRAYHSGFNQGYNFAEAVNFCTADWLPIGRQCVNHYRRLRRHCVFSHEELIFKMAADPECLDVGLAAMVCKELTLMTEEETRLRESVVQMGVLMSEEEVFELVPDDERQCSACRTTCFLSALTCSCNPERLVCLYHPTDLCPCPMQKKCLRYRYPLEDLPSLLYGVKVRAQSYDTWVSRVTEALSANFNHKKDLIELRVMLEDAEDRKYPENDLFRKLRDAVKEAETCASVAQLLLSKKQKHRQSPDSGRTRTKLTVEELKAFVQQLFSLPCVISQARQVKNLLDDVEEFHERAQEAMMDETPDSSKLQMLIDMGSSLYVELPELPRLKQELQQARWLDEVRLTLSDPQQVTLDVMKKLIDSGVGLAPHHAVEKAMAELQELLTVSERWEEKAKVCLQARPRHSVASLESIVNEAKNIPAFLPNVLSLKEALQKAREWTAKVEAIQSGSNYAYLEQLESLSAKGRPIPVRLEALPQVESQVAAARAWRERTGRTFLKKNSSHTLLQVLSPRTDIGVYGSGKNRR
Compound,IC50 (Jarid1B),IC50 (JMJD2C),IC50 (Jarid1A)
"O=C(O)c1ccnc2cc(C(=O)N3CCCc4ccccc43)[nH]c12 [Example 105, 2-(1,2,3,4-tetrahydroquinolylcarbonyl)-pyrrolo[3,2-b]pyridine-7-carboxylic acid]",1000 to 10000 nM,1000 to 10000 nM,100 to 1000 nM
"N#CCCc1cc2nccc(C(=O)O)c2[nH]1 [Example 58, 2-(2-cyanoethyl)-1H-pyrrolo[3,2-b]pyridine-7-carboxylic acid]",100 to 1000 nM,< 100 nM,100 to 1000 nM
"COC(=O)c1ccnc2cc(C(C)(C)O)[nH]c12 [Example 4, methyl 2-(2-hydroxypropan-2-yl)-1H-pyrrolo[3,2-b]pyridine-7-carboxylate]",> 10000 nM,> 10000 nM,> 10000 nM
"O=C(O)c1ccnc2cc(C3(O)CCCCC3)[nH]c12 [Example 14, 2-(1-hydroxycyclohexyl)-1H-pyrrolo[3,2-b]pyridine-7-carboxylic acid]",100 to 1000 nM,100 to 1000 nM,100 to 1000 nM
"CCCc1cc2nccc(C(=O)O)c2[nH]1 [Example 8, 2-propyl-1H-pyrrolo[3,2-b]pyridine-7-carboxylic acid]",1000 to 10000 nM,< 100 nM,1000 to 10000 nM
"O=C(O)c1ccnc2cc(Cc3ccc(Cl)cc3Cl)[nH]c12 [Example 90, 2-[(2,4-dichlorphenyl)methyl]-1H-pyrrolo[3,2-b]pyridine-7-carboxylic acid]",< 100 nM,100 to 1000 nM,< 100 nM
"O=C(O)c1ccnc2cc(C(=O)N3CCc4ccccc43)[nH]c12 [Example 107, 2-(indolinylcarbonyl)pyrrolo[3,2-b]pyridine-7-carboxylic acid]",< 100 nM,100 to 1000 nM,< 100 nM
"O=C(O)c1ccnc2cc(Cc3ccc(F)c(Cl)c3)[nH]c12 [Example 112, 2-(3-chloro-4-fluorobenzyl)-1H-pyrrolo[3,2-6]pyridine-7-carboxylic acid]",< 100 nM,< 100 nM,< 100 nM
"O=C(O)c1ccnc2cc(C(=O)N3CCCC(c4ccccc4)C3)[nH]c12 (centres unmarked) [Example 120, 2-[(3-phenylpiperidyl)carbonyl]pyrrolo-[3,2-b]pyridine-7-carboxylic acid]",100 to 1000 nM,100 to 1000 nM,100 to 1000 nM
"O=C(O)c1ccnc2cc(C3CC3)[nH]c12 [Example 12, 2-cyclopropyl-1H-pyrrolo[3,2-b]pyridine-7-carboxylic acid]",1000 to 10000 nM,< 100 nM,1000 to 10000 nM
"COC(=O)c1ccnc2cc(C3CC3)[nH]c12 [Example 11, methyl 2-cyclopropyl-1H-pyrrolo[3,2-b]pyridine-7-carboxylate]",> 10000 nM,> 10000 nM,> 10000 nM
"CCCC(Oc1ccccc1)c1cc2nccc(C(=O)O)c2[nH]1 (racemic) [Example 85, (±)-2-(1-phenoxybutyl)-1H-pyrrolo[3,2-b]pyridine-7-carboxylic acid]",< 100 nM,100 to 1000 nM,< 100 nM
"O=C(O)c1ccnc2cc(Cc3ccc(Cl)c(F)c3)[nH]c12 [Example 114, 2-(4-chloro-3-fluorobenzyl)-1H-pyrrolo[3,2-b]pyridine-7-carboxylic acid]",< 100 nM,< 100 nM,< 100 nM
"O=C(O)c1ccnc2cc(C(O)CC3CC3)[nH]c12 (racemic) [Example 38, (±)-2-(2-cyclopropyl-1-hydroxyethyl)-1H-pyrrolo[3,2-b]pyridine-7-carboxylic acid]",< 100 nM,< 100 nM,< 100 nM
"O=C(O)c1ccnc2cc(C3CCCC3)[nH]c12 [Example 29, 2-cyclopentyl-1H-pyrrolo[3,2-b]pyridine-7-carboxylic acid]",100 to 1000 nM,< 100 nM,100 to 1000 nM
"CCC(O)c1cc2nccc(C(=O)OC)c2[nH]1 (racemic) [Example 25, (±)-methyl 2-(1-hydroxypropyl)-1H-pyrrolo[3,2-b]pyridine-7-carboxylate]",> 10000 nM,> 10000 nM,> 10000 nM
"O=C(O)c1ccnc2cc(C(O)c3ccccc3)[nH]c12 (racemic) [Example 20, (±)-2-[hydroxy(phenyl)methyl]-1H-pyrrolo[3,2-b]pyridine-7-carboxylic acid]",< 100 nM,< 100 nM,< 100 nM
"CC(c1ccc(F)cc1)c1cc2nccc(C(=O)O)c2[nH]1 (centres unmarked) [Example 110, 2-[1-(4-fluorophenyl)ethyl]-1H-pyrrolo[3,2-b]pyridine-7-carboxylic acid]",100 to 1000 nM,100 to 1000 nM,100 to 1000 nM
"COC(=O)c1ccnc2cc(C3(O)CCCCC3)[nH]c12 [Example 13, methyl 2-(1-hydroxycyclohexyl)-1H-pyrrolo[3,2-b]pyridine-7-carboxylate]",> 10000 nM,> 10000 nM,> 10000 nM

# Continued, values first:
IC50 (Jarid1B),IC50 (JMJD2C),IC50 (Jarid1A),Compound
100 to 1000 nM,< 100 nM,100 to 1000 nM,"COCc1cc2nccc(C(=O)O)c2[nH]1 [Example 41, 2-(methoxymethyl)-1H-pyrrolo[3,2-b]pyridine-7-carboxylic acid]"
< 100 nM,100 to 1000 nM,< 100 nM,"O=C(O)c1ccnc2cc(COc3ccc4c(c3)CCO4)[nH]c12 [Example 76, 2-(2,3dihydro-1-benzofuran-5-yloxymethyl)-1H-pyrrolo[3,2-b]pyridine-7-carboxylic acid]"
< 100 nM,< 100 nM,< 100 nM,"O=C(O)c1ccnc2cc(COc3cccc(F)c3)[nH]c12 [Example 79, 2-[(3-fluorophenoxy)methyl]-1H-pyrrolo[3,2-b]pyridine-7-carboxylic acid]"
< 100 nM,100 to 1000 nM,< 100 nM,"O=C(O)c1ccnc2cc(COc3ccc(C(F)(F)F)cc3)[nH]c12 [Example 68, 2-[[4-(trifluoromethyl)phenoxy]methyl]-1H-pyrrolo[3,2-b]pyridine-7-carboxylic acid]"
100 to 1000 nM,100 to 1000 nM,100 to 1000 nM,"O=C(O)c1ccnc2cc(Cc3ccc(C(F)(F)F)cc3)[nH]c12 [Example 56, 2-[[4-(trifluoromethyl)phenyl]methyl]-1H-pyrrolo[3,2-b]pyridine-7-carboxylic acid]"
100 to 1000 nM,100 to 1000 nM,< 100 nM,"N#Cc1ccc(OCc2cc3nccc(C(=O)O)c3[nH]2)cc1 [Example 98, 2-[(4-cyanophenoxy)methyl]-1H-pyrrolo[3,2-b]pyridine-7-carboxylic acid]"
< 100 nM,100 to 1000 nM,< 100 nM,"O=C(O)c1ccnc2cc(COc3cccc(Cl)c3)[nH]c12 [Example 80, 2-[(3-chlorophenoxy)methyl]-1H-pyrrolo[3,2-b]pyridine-7-carboxylic acid]"
100 to 1000 nM,100 to 1000 nM,100 to 1000 nM,"O=C(O)c1ccnc2cc(COc3ccccc3F)[nH]c12 [Example 95, 2-[(2-fluorophenoxy)methyl]-1H-pyrrolo[3,2-b]pyridine-7-carboxylic acid]"
< 100 nM,100 to 1000 nM,100 to 1000 nM,"COc1ccc(OCc2cc3nccc(C(=O)O)c3[nH]2)cc1 [Example 93, 2-[(4-methoxyphenoxy)methyl]-1H-pyrrolo[3,2-b]pyridine-7-carboxylic acid]"
100 to 1000 nM,100 to 1000 nM,100 to 1000 nM,"Cc1ccc(OCc2cc3nccc(C(=O)O)c3[nH]2)cc1 [Example 62, 2-[(4-methylphenoxy)methyl]-1H-pyrrolo[3,2-b]pyridine-7-carboxylic acid]"
100 to 1000 nM,1000 to 10000 nM,100 to 1000 nM,"O=C(O)c1ccnc2cc(COc3ccccc3Cl)[nH]c12 [Example 94, 2-[(2-chlorophenoxy)methyl]-1H-pyrrolo[3,2-b]pyridine-7-carboxylic acid]"
< 100 nM,< 100 nM,< 100 nM,"O=C(O)c1ccnc2cc(COc3cc(F)cc(F)c3)[nH]c12 [Example 81, 2-[(3,5-difluorophenoxy)methyl]-1H-pyrrolo[3,2-b]pyridine-7-carboxylic acid]"
< 100 nM,< 100 nM,< 100 nM,"O=C(O)c1ccnc2cc(Cc3ccccc3Cl)[nH]c12 [Example 78, 2-[(2-chlorophenyl)methyl]-1H-pyrrolo[3,2-b]pyridine-7-carboxylic acid]"
